# Patent US20040049072A1, “RXR modulators with improved pharmacologic profile” (priority 1999, published 2004)
# Entries after “also recorded” stand apart in the source; their conditions may differ. Like-named read-outs stand apart in the source and are kept apart here.
# Key:
# Crl:CD-1 (ICR)BR mice = experiment: teratogenicity in pregnant Crl:CD-1 (ICR)BR mice; assay type: in vivo, mouse; conditions: for teratogenicity in fetuses: daily oral gavage, gestation days 6-18, L6 30 or 200 mg/kg-day, LG100268 30 or 100 mg/kg-day
# Experimental: Teratogenicity is commonly evaluated by examination of fetuses obtained by cesarean section from pregnant mice dosed daily with test compound between gestation days 6-18. We have conducted a blinded study using time-mated female Crl:CD-1® (ICR)BR mice to evaluate potential developmental toxicity (teratogenicity) following administration of L6 at either 30 or 200 mg/kg-day by daily oral gavage for the specified […] of gestation. Each test group consisted of 7-8 pregnant females and produced approx. 100 live fetuses per test group. […] The highest dose of L6 tested (200 mg/kg-day) is twice the dose required to produce maximum antidiabetic activity in db/db mice (100 mg/kg-day).
# db/db mouse = db/db mouse study (rodent model of Type II diabetes); conditions: for inhibition in vivo at 30 mg/kg: Mus musculus, po, 168 h, read-out: db/db mouse Glu. (D7); for db/db mouse Trigs. (D3): plasma triglycerides as % of control values, day 3, 30 mg/kg/day
# RXRα = molecular target: T1, RXRα (Homo sapiens, UniProt P19793); experiment: RXRα binding (competition with tritiated LGD1069); conditions: Table 2; from IC50 by Cheng-Prussof equation, tritiated LGD1069; read-out: Bind RXRα Ki
# T1 sequence (P19793 1-462): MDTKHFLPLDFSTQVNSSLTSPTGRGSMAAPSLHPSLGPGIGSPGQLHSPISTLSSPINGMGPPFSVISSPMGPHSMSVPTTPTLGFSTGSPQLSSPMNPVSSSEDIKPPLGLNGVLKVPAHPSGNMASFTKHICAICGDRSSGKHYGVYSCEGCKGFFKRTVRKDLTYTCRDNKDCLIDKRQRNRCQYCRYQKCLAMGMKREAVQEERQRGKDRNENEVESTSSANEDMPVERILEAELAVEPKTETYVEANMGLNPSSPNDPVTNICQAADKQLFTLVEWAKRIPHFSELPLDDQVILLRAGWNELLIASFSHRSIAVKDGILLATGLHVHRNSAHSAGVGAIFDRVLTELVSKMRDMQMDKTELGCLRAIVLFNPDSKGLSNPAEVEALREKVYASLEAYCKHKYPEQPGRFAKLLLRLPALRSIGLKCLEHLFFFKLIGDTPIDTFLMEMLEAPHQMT
# Experimental: Non-specific binding was defined as that binding remaining in the presence of 500 nM of the appropriate unlabelled compound. At the end of the incubation period, bound ligand was separated from free. The amount of bound tritiated retinoid was determined by liquid scintillation counting of an aliquot (700 μL) of the supernatant fluid or the hydroxylapatite pellet.
# After correcting for non-specific binding, IC50 values were determined. […] The IC50 value was determined graphically from a log-logit plot of the data. The Ki values were determined by application of the Cheng-Prussof equation to the IC50 values, the labeled ligand concentration and the Kd of the labeled ligand.
# RXRα:RAR heterodimer = molecular target: T2, RXRα:RAR heterodimer (Homo sapiens, UniProt P19793); experiment: RXR:RAR heterodimer co-transfection assay in CV-1 cells; assay type: cell-based; conditions: CV-1; read-out: RXR:RAR CV-1 (%) Ag.
# T2 construct: expressed in transfected cells; host or cells: CV-1 cells
# T2 sequence (P19793 1-462): T1 sequence (P19793 1-462)
# Experimental: For determination of agonist activity in the context of the RXR:RAR heterodimer or the RXR:PPARγ heterodimer, media containing compounds of the present invention in concentrations ranging from 10^−10 to 10^−5 M were added to the cells.
# Compounds of the present invention were also tested for the ability to synergize with a PPARγ agonist in the context of an RXR heterodimer. […] Efficacy of the compounds of the present invention in the agonist and synergy assays was calculated as the maximum response obtained over the range of the dose response curve relative to the maximum response obtained by the reference agonist. Antagonist efficacy was determined as a function (%) of maximal inhibition.
# However, when RAR is occupied, typical RXR agonists activate the heterodimer. […] To examine the effects of the compounds of the present invention on the transcriptional properties of the RXR:RAR heterodimer, a heterodimer cotransfection assay as described above was employed.
# [1] = molecular target: T3, (Homo sapiens, UniProt P19793); experiment: RXR homodimer co-transfection assay in CV-1 cells; assay type: cell-based; conditions: CV-1
# T3 sequence (P19793 1-462): T1 sequence (P19793 1-462)
# Excerpt: In the co-transfection assay, cloned cDNA for one or more IRs (e.g., human RARα, RXRα, or PPARγ), alone or in combination (i.e. for heterodimer assays) under the control of a constitutive promoter (e.g., the SV 40, RSV or CMV promoter) is introduced by transfection (a procedure to introduce exogenous genes into cells) into a background cell substantially devoid of endogenous IRs. These introduced gene(s) direct the recipient cells to make the IR protein(s) of interest. A further gene is also introduced (co-transfected) into the same cells in conjunction with the IR gene(s). This further gene, comprising the cDNA for a reporter protein, such as firefly luciferase (LUC), controlled by an appropriate hormone responsive promoter containing a hormone response element (HRE). This reporter plasmid functions as a reporter for the transcriptional-modulating activity of the target IR(s). Thus, the reporter acts as a surrogate for the products (mRNA then protein) normally expressed by a gene under control of the target receptor(s) and their native hormone(s).
# Exposing the transfected cells to an agonist ligand compound increases reporter activity in the transfected cells. This activity can be conveniently measured, e.g., by increasing luciferase production and enzymatic activity, which reflects compound-dependent, IR-mediated increases in reporter transcription. […] Increasing concentrations of an antagonist will decrease the reporter signal (e.g., luciferase production). The co-transfection assay is therefore useful to detect both agonists and antagonists of specific IRs. Furthermore, it determines not only whether a compound interacts with a particular IR, but whether this interaction mimics (agonizes) or blocks (antagonizes) the effects of native or synthetic regulatory molecules on target gene expression, as well as the specificity and strength of this interaction.
# The receptor expression plasmid was cotransfected along with a reporter plasmid at 50 ng/well, the internal control plasmid pRS-β-Gal at 50 ng/well and filler DNA, pGEM, at 90 ng/well.
# Six hours after transfection, media was removed and the cells were washed with phosphate-buffered saline (PBS). Media containing compounds of the present invention in concentrations ranging from 10^−10 to 10^−5 M were added to the cells. […] Retinoids were dissolved in dimethylsulfoxide for use in the transcriptional activation assays. Two to three replicates were used for each sample. Transfections and subsequent procedures were performed on a Biomek 1000 automated workstation.
# After 40 hours, the cells were washed with PBS, lysed with a detergent-based buffer and assayed for LUC and β-Gal activities using a luminometer or spectrophotometer, respectively. For each replicate, the normalized response (NR) was calculated as: […]
# The mean and standard error of the mean (SEM) of the NR were calculated. Data were plotted as the response of the compound compared to the reference compounds over the range of the dose-response curve. […] Antagonist activity was determined by testing the amount of LUC expression in the presence of the RXR agonists described above at the EC50 concentration for such known compounds. […] In addition, the efficacy of antagonists was determined as a function (%) of maximal inhibition.
# [2] = test system: mice transgenic for the human apolipoprotein A-I gene; experiment: transgenic mice carrying the human apo A-I gene (HDL cholesterol, triglycerides); assay type: in vivo, mouse
# Excerpt: Mice transgenic for the human apolipoprotein A-I gene (obtained from Jackson Laboratory) were used to evaluate PPARalpha mediated effects on HDL cholesterol. The mice were handled as described above for db/db mice, except that they were fed Purina 5001.
# [3] = rodent models of Type II Diabetes
Ki (RXRα) [nM],Emax (RXRα:RAR heterodimer) [%],"Emax ([1]; Table 2, first RXR:RAR head (c4), maximal repression (100%) in presence of 32 nM LGD1069 (RXR:RXR), read-out: RXR:RAR CV-1 (%) Antag.) [%]",Emax ([1]; read-out: RXR:RAR CV-1 (%) Ag.) [%],Compound,"Corpora lutea, implantation sites, live or dead fetuses, resorptions, fetal weight or sex, external and cranial visceral morphology (Crl:CD-1 (ICR)BR mice; L6 at 30 or 200 mg/kg-day compared to vehicle controls)",teratogenicity in fetuses (Crl:CD-1 (ICR)BR mice),dose required to produce maximum antidiabetic activity in db/db mice (db/db mouse; db/db mice) [mg/kg-day],insulin sensitizing activity with thyroid axis suppression and triglyceride elevations (db/db mouse; [3]),inhibition in vivo at 30 mg/kg (db/db mouse) [%],db/db mouse Trigs. (D3) (db/db mouse) [%],triglycerides [2],"db/db mouse Glu. (D 14) (db/db mouse; plasma glucose, % correction relative to lean values, day 14, 100 mg/kg daily oral gavage) [%]","db/db mouse Trigs. (D 14) (db/db mouse; plasma triglycerides, % correction relative to lean values, day 14, NC = no change) [%]",effect on the thyroid hormone axis (db/db mouse; [3]),effect on triglycerides (db/db mouse; [3]),insulin sensitizing activity / effect on glucose (db/db mouse; [3]),"db/db mouse T4 (D 3) (db/db mouse; total T4 as % of obese control values, day 3, NC = no change) [%]"
,,,,CCCCOc1c(\C(C)=C/C=C/C(C)=C/C(=O)O)cc(C(C)C)cc1C(C)C [Compound L6],no effects were observed,no teratogenic effects were observed,100,maintain the desirable insulin sensitizing activity and eliminate or reduce both the suppression of the thyroid axis and triglyceride elevations; also recorded: maintain the desirable insulin sensitizing activity and minimize both the suppression of the thyroid axis and triglyceride elevations,,,,,,,,,
5,2,80,3,CC(/C=C/C1=C(c2cc(C(C)C)cc(C(C)C)c2OCCCF)CCC1)=C\C(=O)O [Compound L14],,,,maintain the desirable insulin sensitizing activity and minimize both the suppression of the thyroid axis and triglyceride elevations,45,138,,,,,,,
,,,,"Cc1cc2c(cc1C1(c3ccc(C(=O)O)cn3)CC1)C(C)(C)CCC2(C)C [LG100268, 6-[1-(3,5,5,8,8-pentamethyl-5,6,7,8-tetrahydronaphthalen-2-yl)cyclopropyl]nicotinic acid, reference compound]",,Teratogenicity was observed,,,73,195,substantially raise triglycerides,73,82,suppress the thyroid hormone axis,raise triglycerides,efficacious insulin sensitizers,43
